According to patent publication US8697641B2, “4-amino-4-oxobutanoyl peptide cyclic analogues, inhibitors of viral replication” (Achillion Pharmaceuticals, Inc., priority 2008, dated 2014):
pEC50: −log10 of the molar value.

Test system: Hepatitis C replicon
Assay: HCV replicon assay (NPT ELISA readout) in Huh-7 replicon-containing cells
Format: cell-based, Hepatitis C virus
Settings: Hepatitis C virus, 72 h; HCV replicon in Huh-7 cells, three days incubation
Method in brief: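 Replication is measured as neomycin phosphotransferase level by captured ELISA after three days of compound exposure (typically 10 to 0.03 μM, 6 concentrations) at 37 °C. Cells are Huh-7 harbouring an HCV replicon with neo gene and NS3-NS5B; interferon alpha is the positive control.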

| SMILES | pEC50 |
| --- | --- |
| O=C1N[C@]2(C(=O)NS(=O)(=O)C3CC3)C[C@H]2/C=C\CCCCC[C@H](CC(=O)N2CCC(C(F)(F)F)CC2)C(=O)N2C[C@H](Oc3cc(-c4ccccn4)nc4c5c(ccc34)CCC5)C[C@@H]12 [Compound 125, (2R,6R,13aS,16aS,Z)-N-(cyclopropylsulfonyl)-5,16-dioxo-6-(2-oxo-2-(4-(trifluoromethyl)piperidin-1-yl)ethyl)-2-(2-(pyridin-2-yl)-8,9-dihydro-7H-cyclopenta[h]quinolin-4-yloxy)-1,2,3,5,6,7,8,9,10,11, 13a,14,14a,15,16,16a-hexadecahydrocyclopropa [e]pyrrolo[1,2-a][1,4] diazacyclopentadecine-14a-carboxamide] | > 6.00 |
| COc1ccc2c(O[C@@H]3C[C@H]4C(=O)N[C@]5(C(=O)NS(=O)(=O)C6CC6)C[C@H]5/C=C\CCCCC[C@H](CC(=O)N5CCC(C(F)(F)F)CC5)C(=O)N4C3)cc(-c3nc(C(C)C)cs3)nc2c1C [Compound 126, (2R,6R,14aR,16aS,Z)-N-(cyclopropylsulfonyl)-2-(2-(4-isopropylthiazol-2-yl)-7-methoxy-8-methylquinolin-4-yloxy)-5,16-dioxo-6-(2-oxo-2-(4-(trifluoromethyl)piperidin-1-yl)ethyl)-1,2,3,5,6,7,8,9,10,11, 13a,14,14a,15,16,16a-hexadecahydrocyclopropa [e]pyrrolo[1,2-a][1,4] diazacyclopentadecine-14a-carboxamide] | > 6.00 |
| O=C1N[C@]2(C(=O)NS(=O)(=O)C3CC3)C[C@H]2/C=C\CCCCC[C@H](CC(=O)N2CCCC(F)(F)C2)C(=O)N2C[C@H](Oc3cc(-c4ccccn4)nc4c5c(ccc34)CCC5)C[C@@H]12 [Compound 127, (2R,6R,13aS,16aS,Z)-N-(cyclopropylsulfonyl)-6-(2-(3,3-difluoropiperidin-1-yl)-2-oxoethyl)-5,16-dioxo-2-(2-(pyridin-2-yl)-8,9-dihydro-7H-cyclopenta[h]quinolin-4-yloxy)-1,2,3,5,6,7,8,9,10,11, 13a,14,14a,15,16,16a-hexadecahydrocyclopropa [e]pyrrolo[1,2-a][1,4] diazacyclopentadecine-14a-carboxamide] | < 5.00 |
| COc1ccc2c(O[C@@H]3C[C@H]4C(=O)N[C@]5(C(=O)NS(=O)(=O)C6CC6)C[C@H]5/C=C\CCCCC[C@H](CC(=O)N5CCCC(F)(F)C5)C(=O)N4C3)cc(-c3nc(C(C)C)cs3)nc2c1C [Compound 128, (2R,6R,14aR,16aS,Z)-N-(cyclopropylsulfonyl)-6-(2-(3,3-difluoropiperidin-1-yl)-2-oxoethyl)-2-(2-(4-isopropylthiazol-2-yl)-7-methoxy-8-methylquinolin-4-yloxy)-5,16-dioxo-1,2,3,5,6,7,8,9,10,11, 13a,14,14a,15,16,16a-hexadecahydrocyclopropa [e]pyrrolo[1,2-a][1,4] diazacyclopentadecine-14a-carboxamide] | > 6.00 |
| COc1ccc2c(O[C@@H]3C[C@H]4C(=O)N[C@]5(C(=O)NS(=O)(=O)C6CC6)C[C@H]5/C=C\CCCCC[C@H](CC(=O)N5CCCC(F)(F)C5)C(=O)N4C3)cc(-c3cccnc3)nc2c1C [Compound 129, (2R,6R,14aR,16aS,Z)-N-(cyclopropylsulfonyl)-6-(2-(3,3-difluoropiperidin-1-yl)-2-oxoethyl)-2-(7-methoxy-8-methyl-2-(pyridin-3-yl)quinolin-4-yloxy)-5,16-dioxo-1,2,3,5,6,7,8,9,10,11, 13a,14,14a,15,16,16a-hexadecahydrocyclopropa [e]pyrrolo[1,2-a][1,4] diazacyclopentadecine-14a-carboxamide] | < 5.00 |
| COc1ccc2c(O[C@@H]3C[C@H]4C(=O)N[C@]5(C(=O)NS(=O)(=O)C6CC6)C[C@H]5/C=C\CCCCC[C@H](CC(=O)N5CCCC(F)(F)C5)C(=O)N4C3)nc(-c3ccccn3)cc2c1Cl [Compound 130, (2R,6R,14aR,16aS,Z)-2-(5-chloro-6-methoxy-3-(pyridin-2-yl)isoquinolin-1-yloxy)-N-(cyclopropylsulfonyl)-6-(2-(3,3-difluoropiperidin-1-yl)-2-oxoethyl)-5,16-dioxo-1,2,3,5,6,7,8,9,10,11, 13a,14,14a,15,16,16a-hexadecahydrocyclopropa [e]pyrrolo[1,2-a][1,4] diazacyclopentadecine-14a-carboxamide] | > 6.00 |
| COc1ccc2c(O[C@@H]3C[C@H]4C(=O)N[C@]5(C(=O)NS(=O)(=O)C6CC6)CC5/C=C\CCCCC[C@H](CC(=O)N5CCC(C(F)(F)F)CC5)C(=O)N4C3)cc(-c3cccnc3)nc2c1C (stereo partly drawn) [Compound 131, (2R,6R,14aR,16aS,Z)-N-(cyclopropylsulfonyl)-2-(7-methoxy-8-methyl-2-(pyridin-3-yl)quinolin-4-yloxy)-5,16-dioxo-6-(2-oxo-2-(4-(trifluoromethyl)piperidin-1-yl)ethyl)-1,2,3,5,6,7,8,9,10,11, 13a,14,14a,15,16,16a-hexadecahydrocyclopropa [e]pyrrolo[1,2-a][1,4] diazacyclopentadecine-14a-carboxamide] | > 6.00 |
| COc1ccc2c(O[C@@H]3C[C@H]4C(=O)N[C@]5(C(=O)NS(=O)(=O)C6CC6)C[C@H]5/C=C\CCCCC[C@H](CC(=O)N5CCC(C(F)(F)F)CC5)C(=O)N4C3)nc(-c3ccccn3)cc2c1Cl [Compound 132, (2R,6R,14aR,16aS,Z)-2-(5-chloro-6-methoxy-3-(pyridin-2-yl)isoquinolin-1-yloxy)-N-(cyclopropylsulfonyl)-5,16-dioxo-6-(2-oxo-2-(4-(trifluoromethyl)piperidin-1-yl)ethyl)-1,2,3,5,6,7,8,9,10,11, 13a,14,14a,15,16,16a-hexadecahydrocyclopropa [e]pyrrolo[1,2-a][1,4] diazacyclopentadecine-14a-carboxamide] | > 6.00 |
| COc1ccc2c(O[C@@H]3C[C@H]4C(=O)N[C@]5(C(=O)NS(=O)(=O)C6CC6)C[C@H]5/C=C\CCCCC[C@H](CC(=O)N5CCCC(F)(F)C5)C(=O)N4C3)cc(-c3csc(C(C)C)n3)nc2c1C [Compound 133, (2R,6R,14aR,16aS,Z)-N-(cyclopropylsulfonyl)-6-(2-(3,3-difluoropiperidin-1-yl)-2-oxoethyl)-2-(2-(2-isopropylthiazol-4-yl)-7-methoxy-8-methylquinolin-4-yloxy)-5,16-dioxo-1,2,3,5,6,7,8,9,10,11, 13a,14,14a,15,16,16a-hexadecahydrocyclopropa [e]pyrrolo[1,2-a][1,4] diazacyclopentadecine-14a-carboxamide] | > 6.00 |
